# Earlier results as cited in PubChem BioAssay AID1259409 (Chemical Carcinogenesis Research Information System (CCRIS), 2018).
# Test system: rodent chemically induced tumor inhibition, incidence and multiplicity
# Test: CCRIS tumor inhibitor studies
# Conditions: Carcinogen: 7,12-DIMETHYLBENZ[A]ANTHRACENE, 57-97-6, Route [Inhibitor]: SUBCUTANEOUS, Promoter: NONE USED
smiles,measurement,setting,value
CC(C)C[C@H]1C(=O)N2CCC[C@H]2[C@]2(O)O[C@](NC(=O)[C@@H]3C=C4c5cccc6[nH]c(Br)c(c56)C[C@H]4N(C)C3)(C(C)C)C(=O)N12,"tumour outcome (control, treated, inhibition, significance)","Dose [Inhibitor]: 0.1 MG 1/D FOR 81 D BEGINNING 30 D PRIOR TO FIRST CARCINOGEN DOSE TO 30 D POST LAST CARCINOGEN DOSE (STUDY DURATION: 31, Species: MOUSE, Strain/Sex: BALB/FEMALE, Target Tissue: Type of Lesion: MAMMARY GLAND: CARCINOMA, Dose [Carcinogen]: 1 MG IN SESAME OIL 1/WK FOR 4 WK","8%, 8%, 0%, not significant"
same,"tumour outcome (control, treated, inhibition, significance)","Dose [Inhibitor]: 0.1 MG/30 G BW FOR 81 D BEGINNING 30 D POST LAST CARCINOGEN DOSE (STUDY DURATION: 27 WK), Species: MOUSE, Strain/Sex: BALB/FEMALE, Target Tissue: Type of Lesion: MAMMARY GLAND: CARCINOMA, Dose [Carcinogen]: 1 MG IN SESAME OIL 1/WK FOR 4 WK","7%, 8%, -14%, not significant"
same,"tumour outcome (control, treated, inhibition, significance)","Dose [Inhibitor]: 0.4 MG/100 G BW 1/D FOR 50 D BEGINNING 30 D POST LAST CARCINOGEN DOSE (90 D TO 140 D OF AGE) (STUDY DURATION: 25 WK), Species: RAT, Strain/Sex: LEWIS/FEMALE, Target Tissue: Type of Lesion: MAMMARY GLAND: CARCINOMA, Dose [Carcinogen]: 10 MG IN SESAME OIL ONCE AT 56 D OF AGE AND ONCE AT 63 D OF AGE","94%, 56%, 40%, p<0.005"
same,"tumour outcome (control, treated, inhibition, significance)","Dose [Inhibitor]: 0.4 MG/100 G BW 1/D FOR 61 D BEGINNING 27 D PRIOR TO FIRST CARCINOGEN DOSE TO 27 D POST LAST CARCINOGEN DOSE (29 TO 90 D, Species: RAT, Strain/Sex: LEWIS/FEMALE, Target Tissue: Type of Lesion: MAMMARY GLAND: CARCINOMA, Dose [Carcinogen]: 10 MG IN SESAME OIL ONCE AT 56 D OF AGE AND ONCE AT 63 D OF AGE","68%, 60%, 12%, not significant"
same,"tumour outcome (control, treated, inhibition, significance)","Dose [Inhibitor]: 0.4 MG/100 G BW 4/WK FOR 20 WK BEGINNING 12 D PRIOR TO FIRST CARCINOGEN DOSE (STUDY DURATION: 152 D), Species: RAT, Strain/Sex: LONG-EVANS/FEMALE, Target Tissue: Type of Lesion: HEMATOPOIETIC SYSTEM: LEUKEMIA (UNDIFFERENTIATED CELL), Dose [Carcinogen]: 10 MG IN SESAME OIL 1/2 WK FOR 12 WK (6 TOTAL DOSES)","13/40 (33%), 15/41 (36%), -9%, not significant"
same,"tumour outcome (control, treated, inhibition, significance)","Dose [Inhibitor]: 0.4 MG/100 G BW 4/WK FOR 35 WK BEGINNING 12 D PRIOR TO FIRST CARCINOGEN DOSE (STUDY DURATION: 257 D), Species: RAT, Strain/Sex: LONG-EVANS/MALE, Target Tissue: Type of Lesion: HEMATOPOIETIC SYSTEM: LEUKEMIA (UNDIFFERENTIATED CELL), Dose [Carcinogen]: 10 MG IN SESAME OIL 1/2 WK FOR 12 WK (6 TOTAL DOSES)","10/38 (26%), 8/38 (21%), 19%, not significant"
same,"tumour outcome (control, treated, inhibition, significance)","Dose [Inhibitor]: 0.4 MG/D FROM 26 TO 93 D OF AGE BEGINNING 30 D PRIOR TO FIRST CARCINOGEN DOSE (STUDY DURATION: 9 MO AFTER LAST DMBA TREA, Species: RAT, Strain/Sex: LEWIS/FEMALE, Target Tissue: Type of Lesion: MAMMARY GLAND: CARCINOMA, Dose [Carcinogen]: 10 MG TWICE ONCE AT 56 D AND ONCE AT 63 D OF AGE","70%, 62%, 11%, not significant"
same,"tumour outcome (control, treated, inhibition, significance)","Dose [Inhibitor]: 0.4 MG/D FROM 30 TO 90 D OF AGE BEGINNING 30 D PRIOR TO CARCINOGEN DOSE (STUDY DURATION: 6 MO AFTER DMBA TREATMENT), Species: RAT, Strain/Sex: SPRAGUE-DAWLEY/FEMALE, Target Tissue: Type of Lesion: MAMMARY GLAND: CARCINOMA, Dose [Carcinogen]: 20 MG ONCE AT 60 D OF AGE","96%, 82%, 15%, p<0.05"
same,"tumour outcome (control, treated, inhibition, significance)","Dose [Inhibitor]: 0.4 MG/D FROM 30 TO 90 D OF AGE BEGINNING 30 D PRIOR TO CARCINOGEN DOSE (STUDY DURATION: 9 MO AFTER AMBA TREATMENT), Species: RAT, Strain/Sex: SPRAGUE-DAWLEY/FEMALE, Target Tissue: Type of Lesion: MAMMARY GLAND: CARCINOMA, Dose [Carcinogen]: 5 MG ONCE AT 60 D OF AGE","82%, 60%, 27%, p<0.05"
same,"tumour outcome (control, treated, inhibition, significance)","Dose [Inhibitor]: 0.4 MG/D FROM 30 TO 90 D OF AGE BEGINNING 30 D PRIOR TO CARCINOGEN DOSE (STUDY DURATION: 9 MO AFTER DMBA TREATMENT), Species: RAT, Strain/Sex: SPRAGUE-DAWLEY/FEMALE, Target Tissue: Type of Lesion: MAMMARY GLAND: FIBROADENOMA, Dose [Carcinogen]: 5 MG ONCE AT 60 D OF AGE","25%, 15%, 40%, not significant"
same,"tumour outcome (control, treated, inhibition, significance)","Dose [Inhibitor]: 0.4 MG/D FROM 30 TO 90 D OF AGE BEGINNING 30 D PRIOR TO CARCINOGEN DOSE (STUDY DURATION: 9 MO AFTER LAST DMBA TREATMENT), Species: RAT, Strain/Sex: LONG-EVANS/FEMALE, Target Tissue: Type of Lesion: MAMMARY GLAND: CARCINOMA, Dose [Carcinogen]: 20 MG ONCE AT 60 D OF AGE","25%, 22%, 12%, not significant"
same,"tumour outcome (control, treated, inhibition, significance)","Dose [Inhibitor]: 0.4 MG/D FROM 30 TO 90 D OF AGE BEGINNING 30 D PRIOR TO CARCINOGEN DOSE (STUDY DURATION: 9 MO AFTER LAST DMBA TREATMENT), Species: RAT, Strain/Sex: LONG-EVANS/FEMALE, Target Tissue: Type of Lesion: MAMMARY GLAND: FIBROADENOMA, Dose [Carcinogen]: 20 MG ONCE AT 60 D OF AGE","12%, 3%, 75%, not significant"
same,"tumour outcome (control, treated, inhibition, significance)","Dose [Inhibitor]: 0.4 MG/D FROM 30 TO 90 D OF AGE BEGINNING 30 D PRIOR TO CARCINOGEN DOSE (STUDY DURATION: 12 MO AFTER DMBA TREATMENT), Species: RAT, Strain/Sex: SPRAGUE-DAWLEY/FEMALE, Target Tissue: Type of Lesion: MAMMARY GLAND: CARCINOMA, Dose [Carcinogen]: 1.25 MG ONCE AT 60 D OF AGE","10%, 10%, 0%, not significant"
same,"tumour outcome (control, treated, inhibition, significance)","Dose [Inhibitor]: 0.4 MG/D FROM 30 TO 90 D OF AGE BEGINNING 30 D PRIOR TO CARCINOGEN DOSE (STUDY DURATION: 12 MO AFTER DMBA TREATMENT), Species: RAT, Strain/Sex: SPRAGUE-DAWLEY/FEMALE, Target Tissue: Type of Lesion: MAMMARY GLAND: FIBROADENOMA, Dose [Carcinogen]: 1.25 MG ONCE AT 60 D OF AGE","90%, 80%, 11%, p<0.05"
